Measured values published in patent US12077503B2, “Substituted cyclic amides and their use as herbicides” (FMC CORPORATION, priority 2015, dated 2024).

Key:
Type in all cases: in vivo
[1] = system: ducksalad (Heteranthera limosa); test: Test B flooded paddy test; conditions: Flood, 250 g ai/ha; 0 to 100 scale where 0 is no effect and 100 is complete control; 13 to 15 d
Procedure, shortened: (§1)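 2-leaf plants; pots flooded 3 cm over soil; cpd added to paddy water; depth held; greenhouse 13–15 d; visual rating vs controls, 0 = no effect, 100 = complete control.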

[2] = system: barnyardgrass (Echinochloa crus-galli); test: Test B flooded paddy test; conditions: Flood, 250 g ai/ha; 0 to 100 scale where 0 is no effect and 100 is complete control; 13 to 15 d
Procedure, shortened: as §1

[3] = system: sedge, umbrella (small-flower umbrella sedge, Cyperus difformis); test: Test B flooded paddy test; conditions: Flood, 250 g ai/ha; 0 to 100 scale where 0 is no effect and 100 is complete control; 13 to 15 d
Procedure, shortened: as §1

rice (Oryra sativa) = test: Test B flooded paddy test; conditions: Flood, 250 g ai/ha; 0 to 100 scale where 0 is no effect and 100 is complete control; 13 to 15 d
Procedure, shortened: as §1

[4] = system: blackgrass (Alopecurus myosuroides); test: Test A postemergence
Procedure, shortened: (§2)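 Compounds were formulated in a non-phytotoxic solvent mixture with surfactant and applied as a preemergence directed soil spray after seeding, or sprayed postemergence over plants 2 to 10 cm tall at the one- to two-leaf stage. Evaluation after about 10 d compared treated with untreated controls, using a scale from 0 (no effect) to 100 (complete control).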

[5] = system: barnyardgrass (Echinochloa crus-galli); test: Test A postemergence
Procedure, shortened: as §2

[6] = system: pigweed (Amaranthus retroflexus); test: Test A postemergence
Procedure, shortened: as §2

[7] = system: wheat (Triticum aestivum); test: Test A postemergence
Procedure, shortened: as §2

[8] = system: ryegrass, Italian (Italian ryegrass, Lolium multiflorum); test: Test A postemergence
Procedure, shortened: as §2

[9] = system: ragweed (common ragweed, Ambrosia elatior); test: Test A postemergence
Procedure, shortened: as §2

corn (Zea mays) = test: Test A postemergence
Procedure, shortened: as §2

[10] = system: Galium (catchweed bedstraw, Galium aparine); test: Test A postemergence
Procedure, shortened: as §2

[11] = system: giant foxtail (Setaria faberii); test: Test A postemergence
Procedure, shortened: as §2

Kochia (Kochia scoparia) [12] = test: Test A postemergence
Procedure, shortened: as §2

[13] = system: barnyardgrass (Echinochloa crus-galli); test: Test A preemergence; conditions: for Plant response rating, Barnyardgrass: 125 g ai/ha, preemergence, 0 to 100 scale (0 no effect, 100 complete control)
Procedure, shortened: as §2

[14] = system: pigweed (Amaranthus retroflexus); test: Test A preemergence; conditions: for Plant response rating, Pigweed: 125 g ai/ha, preemergence, 0 to 100 scale (0 no effect, 100 complete control)
[15] = system: ryegrass, Italian (Italian ryegrass, Lolium multiflorum); test: Test A preemergence; conditions: for Plant response rating, Ryegrass, Italian: 125 g ai/ha, preemergence, 0 to 100 scale (0 no effect, 100 complete control)
Procedure, shortened: as §2

[16] = system: ragweed (common ragweed, Ambrosia elatior); test: Test A preemergence; conditions: for Plant response rating, Ragweed: 125 g ai/ha, preemergence, 0 to 100 scale (0 no effect, 100 complete control)
Procedure, shortened: as §2

[17] = system: giant foxtail (Setaria faberii); test: Test A preemergence; conditions: for Plant response rating, Foxtail, Giant: 125 g ai/ha, preemergence, 0 to 100 scale (0 no effect, 100 complete control)
Procedure, shortened: as §2

Kochia (Kochia scoparia) [18] = test: Test A preemergence; conditions: for Plant response rating, Kochia: 125 g ai/ha, preemergence, 0 to 100 scale (0 no effect, 100 complete control)
Procedure, shortened: as §2

[19] = 500 g ai/ha, postemergence, 0 to 100 scale, 0 no effect, 100 complete control
[20] = Postemergence, 125 g ai/ha, visual injury, 0 to 100 scale (0 no effect, 100 complete control), approx. 10 d
[21] = Preemergence, 500 g ai/ha, 0 is no effect, 100 is complete control
[22] = 125 g ai/ha, postemergence, visual injury rating on 0 to 100 scale (0 no effect, 100 complete control), approx. 10 d
[23] = Preemergence, 500 g ai/ha, visual injury approx. 10 d

Cc1cccc(C2CNC(=O)C2C(=O)Nc2ccccc2C(F)(F)F)c1 (racemic) [Compound 374]
Plant response rating, Ducksalad [1]: 95
Plant response rating, Barnyardgrass [2]: 60
Plant response rating, Sedge, Umbrella [3]: 0
Plant response rating, Rice (rice (Oryra sativa)): 30
Plant response rating, Blackgrass [4, 19]: 50
Plant response rating, Blackgrass [4, 20]: 0
Plant response rating, Barnyardgrass [5, 19]: 90
Plant response rating, Barnyardgrass [5, 20]: 80
Plant response rating, Pigweed [6, 19]: 0
Plant response rating, Pigweed [6, 20]: 0
Plant response rating, Wheat [7, 19]: 40
Plant response rating, Wheat [7, 20]: 0
Plant response rating, Ryegrass, Italian [8, 19]: 0
Plant response rating, Ryegrass, Italian [8, 20]: 0
Plant response rating, Ragweed [9, 19]: 0
Plant response rating, Ragweed [9, 20]: 0
Plant response rating, Corn (corn (Zea mays); [19]): 20
Plant response rating, Corn (corn (Zea mays); [20]): 0
Plant response rating, Galium [10, 19]: 40
Plant response rating, Galium [10, 20]: 0
Plant response rating, Foxtail, Giant [11, 19]: 50
Plant response rating, Foxtail, Giant [11, 20]: 20
Plant response rating, Kochia (Kochia (Kochia scoparia) [12]; [19]): 0
Plant response rating, Kochia (Kochia (Kochia scoparia) [12]; [20]): 0
Plant response rating, Barnyardgrass [13]: 90
Barnyardgrass plant response rating (0 to 100 scale) [13, 21]: 90
Plant response rating, Pigweed [14]: 0
Pigweed plant response rating (0 to 100 scale) [14, 21]: 0
Plant response rating, Ryegrass, Italian [15]: 0
Ryegrass, Italian plant response rating (0 to 100 scale) [15, 21]: 30
Plant response rating, Ragweed [16]: 0
Ragweed plant response rating (0 to 100 scale) [16, 21]: 0
Plant response rating, Foxtail, Giant [17]: 90
Foxtail, Giant plant response rating (0 to 100 scale) [17, 21]: 90
Plant response rating, Kochia (Kochia (Kochia scoparia) [18]): 0
Kochia plant response rating (0 to 100 scale) (Kochia (Kochia scoparia) [18]; [21]): 0

Cc1c(F)ccc(NC(=O)C2C(=O)NCC2c2cccc(C(F)(F)F)c2)c1F (stereo not drawn) [Compound 463]
Plant response rating, Ducksalad [1]: 70
Plant response rating, Barnyardgrass [2]: 25
Plant response rating, Sedge, Umbrella [3]: 0
Plant response rating, Rice (rice (Oryra sativa)): 0
Blackgrass plant response rating [4, 22]: 20
Plant response rating, Blackgrass [4, 19]: 70
Barnyardgrass plant response rating [5, 22]: 50
Plant response rating, Barnyardgrass [5, 19]: 70
Pigweed plant response rating [6, 22]: 0
Plant response rating, Pigweed [6, 19]: 0
Wheat plant response rating [7, 22]: 0
Plant response rating, Wheat [7, 19]: 0
Ryegrass, Italian plant response rating [8, 22]: 0
Plant response rating, Ryegrass, Italian [8, 19]: 30
Ragweed plant response rating [9, 22]: 0
Plant response rating, Ragweed [9, 19]: 0
Corn plant response rating (corn (Zea mays); [22]): 0
Plant response rating, Corn (corn (Zea mays); [19]): 0
Galium plant response rating [10, 22]: 0
Plant response rating, Galium [10, 19]: 0
Foxtail, Giant plant response rating [11, 22]: 70
Plant response rating, Foxtail, Giant [11, 19]: 70
Kochia plant response rating (Kochia (Kochia scoparia) [12]; [22]): 0
Plant response rating, Kochia (Kochia (Kochia scoparia) [12]; [19]): 0
Plant response rating, Barnyardgrass [13]: 50
Barnyardgrass plant response rating (0 to 100 scale, 0 is no effect, 100 is complete control) [13, 23]: 80
Plant response rating, Pigweed [14]: 0
Pigweed plant response rating (0 to 100 scale, 0 is no effect, 100 is complete control) [14, 23]: 0
Plant response rating, Ryegrass, Italian [15]: 0
Ryegrass, Italian plant response rating (0 to 100 scale, 0 is no effect, 100 is complete control) [15, 23]: 20
Plant response rating, Ragweed [16]: 0
Ragweed plant response rating (0 to 100 scale, 0 is no effect, 100 is complete control) [16, 23]: 0
Plant response rating, Foxtail, Giant [17]: 80
Foxtail, Giant plant response rating (0 to 100 scale, 0 is no effect, 100 is complete control) [17, 23]: 90
Plant response rating, Kochia (Kochia (Kochia scoparia) [18]): 0
Kochia plant response rating (0 to 100 scale, 0 is no effect, 100 is complete control) (Kochia (Kochia scoparia) [18]; [23]): 0
